Results on two compounds are retold here after PMC10522591, “Natural product P57 induces hypothermia through targeting pyridoxal kinase” (Nature Communications, 2023).

Assay [1] has as its target T1, pyridoxal kinase (PDXK) (Homo sapiens, UniProt O00764).
T1 construct: wild-type full-length human PDXK, N-terminal His tag
T1 sequence (O00764 1-312): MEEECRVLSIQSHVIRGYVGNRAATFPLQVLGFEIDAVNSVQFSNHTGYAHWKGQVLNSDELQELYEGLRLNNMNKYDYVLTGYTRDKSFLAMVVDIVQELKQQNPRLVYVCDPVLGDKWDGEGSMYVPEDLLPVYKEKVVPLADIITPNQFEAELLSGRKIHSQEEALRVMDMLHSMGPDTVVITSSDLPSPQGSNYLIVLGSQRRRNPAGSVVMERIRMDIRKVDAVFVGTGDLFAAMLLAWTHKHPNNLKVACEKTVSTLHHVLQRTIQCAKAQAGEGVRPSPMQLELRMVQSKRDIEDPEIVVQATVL
The assay is described as follows: initial velocity kinetics, ATP varied at fixed PL. It is filed as biochemical.

In assay [2] the target is T2, pyridoxal kinase (PDXK) (Mus musculus, UniProt Q8K183).
T2 construct: endogenous, mouse brain lysate
T2 sequence (Q8K183 1-312): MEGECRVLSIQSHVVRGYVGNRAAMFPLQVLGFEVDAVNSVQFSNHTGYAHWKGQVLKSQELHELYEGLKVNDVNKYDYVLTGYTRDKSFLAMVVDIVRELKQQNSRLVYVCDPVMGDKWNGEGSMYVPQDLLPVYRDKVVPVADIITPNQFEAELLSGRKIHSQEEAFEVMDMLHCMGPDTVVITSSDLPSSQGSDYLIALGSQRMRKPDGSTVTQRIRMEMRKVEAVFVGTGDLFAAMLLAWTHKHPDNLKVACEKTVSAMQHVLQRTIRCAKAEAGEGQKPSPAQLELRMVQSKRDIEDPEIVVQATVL
The assay is described as follows: competition of P57-Bio ([…]) affinity pull-down by P57 ([…]), Western blot. Type of assay: cell-based.

In assay [3] the target is T3, pyridoxal kinase (PDXK) (Homo sapiens, UniProt O00764, D235A).
T3 construct: full-length human PDXK D235A, N-terminal His tag
T3 sequence (O00764 1-312 D235A): T1 sequence (O00764 1-312) with D235A
The assay is described as follows: inhibition of purified mutant enzyme (Fig. S5g). It is filed as biochemical.

The target in assay [4] is T1, pyridoxal kinase (PDXK). The assay is described as follows: SPR (Biacore T200); also MST Kd =[…], and enzyme inhibition with EC50 […]. It is filed as binding. For orientation: Surface plasmon resonance follows binding to a sensor surface in real time, without labels.

Structures are written as SMILES. Numbering of substitutions follows the chain as printed.

As to `Nc1ncnc2c1ncn2[C@@H]1O[C@H](COP(=O)(O)OP(=O)(O)OP(=O)(O)O)[C@@H](O)[C@H]1O` [ATP], in assay [1], the “initial velocity kinetics, ATP varied at fixed PL” value is “PL concentration was fixed and the concentrations of ATP were varied showed that both Km and Vmax values decreased”.

`C/C=C(\C)C(=O)O[C@@H]1C[C@H]2[C@@H](CC=C3C[C@@H](O[C@H]4C[C@H](OC)[C@H](O[C@H]5C[C@H](OC)[C@H](O[C@@H]6O[C@H](C)[C@@H](O)[C@H](OC)[C@H]6O)[C@@H](C)O5)[C@@H](C)O4)CC[C@@]32C)[C@@]2(O)CC[C@H](C(C)=O)[C@@]12C` [P57]: in assay [2], the “competition of P57-Bio (2.0 μM) affinity pull-down by P57 (20.0 μM), Western blo” value was “immunoblotting showed GSTP1 and PDXK, but not neuromodulin, were sensitive to competition by excess P57”. Moreover, in assay [3], the “inhibition of purified mutant enzyme (Fig. S5g)” value is “the D235A mutation can reduce the binding stability to a certain extent, and partly reducing the inhibitory activity”. This compound also came in with a Kd in assay [4] of 3.5 µM.

A word on the Kd: it is the equilibrium constant for the complex coming apart.
